What was measured:
[1] = Thermodynamic pH-dependent solubility; details: room temperature, 24 h
Description: The thermodynamic pH-dependent solubility was performed in unbuffered water as well as using standard Merck Titriplex® buffers (Merck Titrisol® buffer pH 3 with citrate and HCl; Merck Titrisol® buffer pH 4 with citrate and HCl; Merck Titrisol® buffer pH 5 with citrate and NaOH; Merck Titrisol® buffer pH 6 with citrate and NaOH; Merck Titrisol® buffer pH 7 with phosphate; for buffering at pH 4.5 a 50/50 mixture of buffers for pH 4 and 5 was used; for buffering at pH 5.5 a 50/50 mixture of buffers for pH 5 and 6 was used).
For each experiment, an 8 mL screw cap vial was prepared with the polymorphic material, the buffer solvent according to the target pH and a magnetic stirring bar. Each pH data point was determined in triplicate with a target pH of 3, 4, 4.5, 5, 5.5 and 7. The pH was measured (Fisherbrand pH meter Hydrus 400, a three point calibration was performed prior to measurement) and adjusted with 1M NaOH solution. […] After 24 h the pH was monitored and the slurries were centrifuged for 10 min at 3000 rpm to separate the solids and liquids and filtered (0.45 micron disk filter). […] Concentrations of the compound of formula I were determined by High Performance Liquid Chromatography with Diode Array Detection analysis (HPLC-DAD). […]
HPLC testing was performed on Agilent 1100 with DAD detector at 280 nm wavelength. A LOQ of 11 μg/mL was determined, linearity is given up to ca. 0.7 mg/mL. […]

[2] = Dynamic vapor sorption (DVS) moisture sorption isotherm; format: physicochemical; details: for water absorption up to 85% RH / water absorption up to 95% RH: DVS, ca. 25° C.
Description: Differences in hygroscopicity of the various forms of a solid material provided a measure of their relative stability at increasing relative humidity. Moisture sorption isotherms were obtained using a DVS-1 system from Surface Measurement Systems (London, UK). The relative humidity was varied during sorption-desorption (see specific experiment) at a constant temperature of ca. 25° C. At the end of the DVS experiment the sample was measured by XRPD.
The dynamic vapor sorption (DVS) analysis for the crystalline Form E of the dichloride salt of the compound of formula I is depicted in FIG. 11.
See Example 5f for experimental details. The DVS analysis for the crystalline System A+M of the dichloride salt of the compound of formula I is depicted in FIG. 35.

[3] = Polymorphic stability (XRPD, climate chamber storage)
Description: XRPD patterns were obtained using a high-throughput XRPD set-up. The plates were mounted on a Bruker GADDS diffractometer equipped with a Hi-Star area detector. The XRPD platform was calibrated using Silver Behenate for the long d-spacings and Corundum for the short d-spacings. Data collection was carried out at room temperature using monochromatic CuKo radiation in the 20 region between 1.5° and 41.5°, which is the most distinctive part of the XRPD pattern. The diffraction pattern of each well was collected in two 20 ranges (1.5° 20≤21.5° for the first frame, and 19.5°% 20≤41.5° for the second) with an exposure time of 90 s for each frame. No background subtraction or curve smoothing was applied to the XRPD patterns. The carrier material used during XRPD analysis was transparent to X-rays and contributed only slightly to the background.
For variable humidity (VH) and variable temperature (VT) experiments a ANSYCO HT chamber was used, installed within a D8 Advance system diffractometer (Bruker) designed with Bragg-Brentano geometry and equipped with LynxEye solid state detector. The radiation used for collecting the data was CuKαl (2=1.54056 Å) monochromatized by germanium crystal. The material was placed on a fixed sample holder that was mounted inside the chamber.
VH-XRPD: The humidity was applied locally and varied from 10 to 70% (dew point). […]

| SMILES | solubility (in words) [1] | water absorption up to 85% RH [2] | water absorption up to 95% RH [2] | polymorphic stability (in words) ([3]; listed as System A+X) | polymorphic form after 2 days at 40° C./75% RH ([3]; wet solid treated 2 days at 40° C./75% RH) | hysteresis in DVS ([2]; isothermic (24.9° C.) DVS, 0→95→0% RH) | maximum mass change ([2]; isothermic (24.9° C.) DVS, 0→95→0% RH in steps of 10% RH, at 95% RH) [%] |
| --- | --- | --- | --- | --- | --- | --- | --- |
| N#CCCNc1nonc1-c1nc2ccccc2n1CC(=O)c1ccc(NC(=O)[C@@H](N)CCCCN)cc1 [System A+M] | good solubility | ca. 22% | < 34% | polymorphically stable | – | – | – |
| N#CCCNc1nonc1-c1nc2ccccc2n1CC(=O)c1ccc(NC(=O)[C@@H](N)CCCCN)cc1 [Form E] | – | 1% | ca. 4% | – | Form E | – | – |
| N#CCCNc1nonc1-c1nc2ccccc2n1CC(=O)c1ccc(NC(=O)[C@@H](N)CCCCN)cc1 [Mixture A1+M4] | – | – | – | – | – | No hysteresis was observed | 34 |
